Reference: publication PMC11067372, “Evaluation of the antiplasmodial efficacy of synthetic 2,5-diphenyloxazole analogs of compounds naturally derived from Oxytropis lanata” (International Journal for Parasitology: Drugs and Drug …, 2024)
Where two headings read alike, the source gives them in different places.

Tests used:
P. falciparum K1 = assay: In vitro inhibition of P. falciparum K1 (SYBR Green I-based fluorescence assay); assay type: cell-based; conditions: Plasmodium falciparum; multidrug-resistant strain K1; 72 h incubation; average ± SD, three independent experiments; read-out: IC50 P. falciparum K1
Description: (§1) The cultures were maintained in an incubator under specific conditions: 37 °C under 5% CO2 and 5% O2.
(§2) The D-sorbitol method (CAS: 50-70-4, Wako, Osaka, Japan) was employed to synchronize parasites, resulting in the attainment of ≥90% ring-stage parasites. These synchronized parasites were then utilized for the experiments within a 2-h window. The assay was performed as follows. First, 50 μL of synchronized parasites with 0.5% parasitemia and 2% hematocrit were added to individual wells of a 96-well plate. Then, 50 μL of the test compounds was introduced to each well. […] Wells containing only test compounds and erythrocytes were included for background correction. […] After the designated incubation time, 100 μL of lysis buffer containing 0.02% (v/v) SYBR Green I was added to each well, the contents of the well were mixed by pipetting, and the plate was incubated in the dark at room temperature for 2 h. […] This assay was repeated four times at each concentration, and the resulting inhibitory values represent the average from three independent trials.
(§3) The IC50 or CC50 values were determined from three independent experiments by plotting the logarithmic concentration of the compound against the percent parasite inhibition or cell growth inhibition, respectively. Nonlinear regression analysis was conducted using GraphPad Prism 10 (GraphPad Software, Inc., La Jolla, CA, USA). Comparisons between groups were evaluated using either one-way or two-way ANOVA followed by Tukey's or Fisher's multiple comparisons tests. […] The meaning of each symbol is specified in the corresponding figure legend alongside the name of the employed test.

[1] = In vitro toxicity to human cells (cell viability assay); assay type: cell-based; conditions: human foreskin fibroblasts (HFFs), average ± SD, three independent experiments
Description: HFF cells are selected for cytotoxicity testing in this study, providing a physiologically relevant model for the evaluation of drug interactions with human cells. […] This designation makes them a suitable model for the investigation of cellular processes and their sensitivity to toxic substances, which is crucial for the early identification of potential adverse effects of drugs during the development process.
The IC50 or CC50 values were determined from three independent experiments by plotting the logarithmic concentration of the compound against the percent parasite inhibition or cell growth inhibition, respectively. Nonlinear regression analysis was conducted using GraphPad Prism 10 (GraphPad Software, Inc., La Jolla, CA, USA). Comparisons between groups were evaluated using either one-way or two-way ANOVA followed by Tukey's or Fisher's multiple comparisons tests. A p-value of <0.05 was considered to indicate statistical significance and is denoted by an asterisk or a symbol. The meaning of each symbol is specified in the corresponding figure legend alongside the name of the employed test.

P. falciparum 3D7 = assay: In vitro inhibition of P. falciparum 3D7 (SYBR Green I-based fluorescence assay); assay type: cell-based, Plasmodium falciparum; set-up: logIC50: unit not given here; conditions: for IC50: Plasmodium falciparum; for logIC50: base-10 log-transformed IC50 against P. falciparum 3D7
Description: as §1, §2, §3

[2] = Table S2, P. falciparum 3D7, value used for SAR analysis, read-out: IC50
[3] = chloroquine-sensitive strain 3D7, 72 h incubation, average ± SD, three independent experiments, read-out: IC50 P. falciparum 3D7
[4] = 3D7, Table S1, average of three independent experiments, read-out: IC50 Mean against P. falciparum 3D7

| SMILES | IC50 (P. falciparum K1) [µM] | CC50 [1] [µM] | IC50 (P. falciparum 3D7; [2]) [µM] | IC50 (P. falciparum 3D7; [3]) [µM] | logIC50 (P. falciparum 3D7; Table S2) | IC50 (P. falciparum 3D7; [4]) [µM] |
| --- | --- | --- | --- | --- | --- | --- |
| Oc1ccccc1-c1cnc(-c2cccc(O)c2O)o1 [Compound 1, 2-(2′,3′-dihydroxyphenyl)-5-(2″-hydroxyphenyl)oxazole] | 6.17 ± 3.33 | 59.6 ± 4.84 | 11 | 11 ± 2.69 | 1.042 | – |
| COc1ccccc1-c1cnc(-c2cccc(OC)c2OC)o1 [Compound 2] | – | – | – | – | 2.301 | > 200 |
| CC(=O)Oc1ccccc1-c1cnc(-c2cccc(OC(C)=O)c2OC(C)=O)o1 [Compound 3] | 4.7 ± 2.24 | 126 ± 31.6 | 9.22 | 9.22 ± 1.68 | 0.9649 | – |
| Oc1ccc(O)c(-c2ncc(-c3ccccc3O)o2)c1 [Compound 4, 2-(2′,5′-dihydroxyphenyl)-5-(2″-hydroxyphenyl)oxazole] | 3.74 ± 1.47 | 55.4 ± 11.7 | 6.2 | 6.2 ± 4.23 | 0.7924 | – |
| COc1ccc(OC)c(-c2ncc(-c3ccccc3OC)o2)c1 [Compound 5] | – | – | – | – | 2.301 | > 200 |
| CC(=O)Oc1ccc(OC(C)=O)c(-c2ncc(-c3ccccc3OC(C)=O)o2)c1 [Compound 6] | – | – | 13.4 | – | 1.127 | 13.4 |
| Oc1ccc(O)c(-c2cnc(-c3ccccc3)o2)c1 [Compound 7, 2-phenyl-5-(2″,5″-hydroxyphenyl)oxazole] | 1.65 ± 0.72 | 54.1 ± 11 | 3.85 | 3.85 ± 1.87 | 0.5852 | – |
| COc1ccc(OC)c(-c2cnc(-c3ccccc3)o2)c1 [Compound 8] | – | – | – | – | 2.301 | > 200 |
| CC(=O)Oc1ccc(OC(C)=O)c(-c2cnc(-c3ccccc3)o2)c1 [Compound 9] | 1.27 ± 0.51 | 56.7 ± 18.4 | 3.38 | 3.38 ± 1.46 | 0.5284 | – |
| Oc1ccc(O)c(-c2cnc(-c3cc(O)ccc3O)o2)c1 [Compound 10, 2-(2′,5′-dihydroxyphenyl)-5-(2″,5″-dihydroxyphenyl)oxazole] | 4.94 ± 2.15 | 39.5 ± 7.45 | 12.6 | 12.7 ± 7.63 | 1.102 | – |
| COc1ccc(OC)c(-c2cnc(-c3cc(OC)ccc3OC)o2)c1 [Compound 11] | – | – | 15 | – | 1.177 | 15 |
| CC(=O)Oc1ccc(OC(C)=O)c(-c2cnc(-c3cc(OC(C)=O)ccc3OC(C)=O)o2)c1 [Compound 12] | 4.7 ± 1.69 | 67.8 ± 1.39 | 10.2 | 10.2 ± 4.09 | 1.01 | – |
| COc1ccccc1-c1cnc(-c2ccccc2OC)o1 [Compound 13] | – | – | – | – | 2.301 | > 200 |
| COc1cccc(-c2ncc(-c3ccc4ccccc4c3)o2)c1OC [Compound 14] | – | – | 62.4 | – | 1.795 | 62.4 |
| COc1cccc(-c2cnc(-c3cccc(OC)c3OC)o2)c1 [Compound 15] | – | – | 74.8 | – | 1.874 | 74.8 |
| COc1ccc(-c2cnc(-c3cccc(OC)c3OC)o2)cc1 [Compound 16] | – | – | – | – | 1.579 | 37.9 |
| COc1ccc(OC)c(-c2cnc(-c3cccc(OC)c3OC)o2)c1 [Compound 17] | – | – | – | – | 2.301 | > 200 |
| COc1cccc(-c2ncc(-c3ccc(OC)c(OC)c3OC)o2)c1OC [Compound 18] | – | – | 51.1 | – | 1.708 | 51.1 |
| COc1cccc(-c2cnc(-c3cccc(OC)c3)o2)c1 [Compound 19] | – | – | – | – | 1.665 | 46.3 |
| COc1ccc(-c2cnc(-c3ccc(OC)cc3)o2)cc1 [Compound 20] | – | – | – | – | 2.301 | > 200 |
| COc1ccc(-c2ncc(-c3ccccc3OC)o2)c(OC)c1 [Compound 21] | – | – | 19.3 | – | 1.286 | 19.3 |
| COc1ccccc1-c1cnc(-c2c(OC)cccc2OC)o1 [Compound 22] | – | – | – | – | 1.426 | 26.7 |
| COc1cccc(-c2cnc(-c3cccc(OC)c3OC)o2)c1OC [Compound 23] | – | – | 12.7 | – | 1.104 | 12.7 |

| SMILES | IC50 (P. falciparum K1) [µM] | CC50 [1] [µM] | IC50 (P. falciparum 3D7; [2]) [µM] | IC50 (P. falciparum 3D7; [3]) [µM] | logIC50 (P. falciparum 3D7; Table S2) | IC50 (P. falciparum 3D7; [4]) [µM] |
| --- | --- | --- | --- | --- | --- | --- |
| COc1cccc(-c2cnc(-c3ccc(OC)c(OC)c3OC)o2)c1OC [Compound 24] | – | – | – | – | 1.832 | 68 |
| COc1cccc(-c2ncc(-c3ccccc3)o2)c1OC [Compound 25] | – | – | – | – | 1.476 | 29.9 |
| COc1cccc(-c2ncc(-c3ccccc3OC)o2)c1 [Compound 26] | – | – | – | – | 2.301 | > 200 |
| COc1ccc(OC)c(-c2cnc(-c3ccccc3OC)o2)c1 [Compound 27] | – | – | – | – | 2.027 | 106 |
| COc1cccc(-c2ncc(-c3c(OC)cccc3OC)o2)c1OC [Compound 28] | – | – | – | – | 2.096 | 125 |
| COc1ccc(-c2cnc(-c3cccc(OC)c3OC)o2)c(OC)c1 [Compound 29] | – | – | 24.9 | – | 1.397 | 24.9 |
| COc1cccc(-c2ncc(-c3ccccc3C)o2)c1OC [Compound 30] | – | – | – | – | 2.301 | > 200 |
| COCOc1ccccc1-c1cnc(-c2cccc(OC)c2OC)o1 [Compound 33] | – | – | 18.2 | – | 1.26 | 18.2 |
| CCOc1ccccc1-c1cnc(-c2cccc(OC)c2OC)o1 [Compound 34] | – | – | – | – | 2.301 | > 200 |
| CCCOc1ccccc1-c1cnc(-c2cccc(OC)c2OC)o1 [Compound 35] | – | – | 27.7 | – | 1.442 | 27.7 |
| COc1cccc(-c2ncc(-c3ccccc3[N+](=O)[O-])o2)c1OC [Compound 36] | – | – | 39.6 | – | 1.598 | 39.6 |
| COc1cccc(-c2ncc(-c3ccccc3N)o2)c1OC [Compound 37] | – | – | – | – | 1.564 | 36.6 |
| COc1cccc(-c2ncc(-c3ccccc3N(C)C)o2)c1OC [Compound 38] | – | – | 54.2 | – | 1.734 | 54.2 |
| COc1cccc(-c2ncc(-c3ccccc3NC(C)=O)o2)c1OC [Compound 39] | – | – | – | – | 2.301 | > 200 |
| Oc1ccccc1-c1cnc(-c2cccc(O)c2O)s1 [Compound 40] | 1.74 ± 0.89 | 46.3 ± 5.84 | 3.95 | 3.95 ± 1.38 | 0.597 | – |
| COc1ccccc1-c1cnc(-c2cccc(OC)c2OC)s1 [Compound 41] | – | – | – | – | 1.189 | 15.5 |
| Oc1ccccc1-c1nnc(-c2cccc(O)c2O)o1 [Compound 42] | 6.19 ± 2.66 | 52.5 ± 13.2 | 9.53 | 9.53 ± 3.15 | 0.9793 | – |
| COc1ccccc1-c1nnc(-c2cccc(OC)c2OC)o1 [Compound 43] | – | – | 16.9 | – | 1.228 | 16.9 |
| Oc1ccccc1-c1nnc(-c2cccc(O)c2O)s1 [Compound 44] | 3.91 ± 1.45 | 160 ± 62.3 | 6.41 | 6.41 ± 1.16 | 0.8066 | – |
| COc1ccccc1-c1nnc(-c2cccc(OC)c2OC)s1 [Compound 45] | – | – | – | – | 2.301 | > 200 |
| COc1ccccc1-c1coc(-c2cccc(OC)c2OC)n1 [Compound 46] | – | – | – | – | 1.65 | 44.7 |
| Oc1ccccc1-c1coc(-c2cccc(O)c2O)n1 [Compound 47] | 3.13 ± 1.21 | 71 ± 23.1 | 4.63 | 4.63 ± 1.18 | 0.6658 | – |
